SMILES strings stand for the structures. In brackets after ≈: the same amount, converted by molar mass. Activity calls are given as the source filed them.

System in the first series: not listed separately
In words: Cytotoxicity against human RBC up to 500 ug/ml. Type of series: cell-based. Particulars: erythrocyte.
For the compound `CCCCc1ccc(CNCC2CCCC(CNCc3ccc(CCCC)cc3)C2)cc1.Cl.Cl` (centres undefined), the Activity result is listed as “Non-toxic”. For the compound `CC(C)(C)c1ccc(CNCC2CCCC(CNCc3ccc(C(C)(C)C)cc3)C2)cc1.Cl.Cl` (centres undefined), the Activity result is “Non-toxic”.

For another series, the system named is Mycobacterium tuberculosis. In words: Antitubercular activity against Mycobacterium tuberculosis H37Rv after 5 days by fluorescence assay. In kind it is functional. Particulars: 120 h.
The MIC is the smallest concentration in the dilution series that meets the test's criterion for growth inhibition. The low end stands for greater potency, the high end for weaker potency. `CCCCCCCc1ccc(CNCC2CCCC(CNCc3ccc(CCCCCCC)cc3)C2)cc1` (centres undefined) yielded an MIC of 3.1 µM (≈ 1.61 µg/mL).

`Cc1ccc(C)c(CNCC2CCCC(CNCc3cc(C)ccc3C)C2)c1` (centres undefined): the MIC was over 20 µM. As to `Brc1ccccc1CNCC1CCCC(CNCc2ccccc2Br)C1` (centres undefined), the MIC is over 20 µM. Same read-out and setting: the value for `Brc1cccc(CNCC2CCCC(CNCc3cccc(Br)c3)C2)c1` (centres undefined) was 12.7 µM (≈ 6.1 µg/mL). In turn, `CCCCCCc1ccc(CNCC2CCCC(CNCc3ccc(CCCCCC)cc3)C2)cc1` (centres undefined) yielded an MIC of 5.6 µM (≈ 2.75 µg/mL). In turn, `CCCCCc1ccccc1CNCC1CCCC(CNCc2ccccc2CCCCC)C1` (centres undefined) showed an MIC of 8.7 µM (≈ 4.03 µg/mL). The same measure, in the same setting: the value for `CCCc1ccc(CNCC2CCCC(CNCc3ccc(CCC)cc3)C2)cc1` (centres undefined) was 4.2 µM (≈ 1.71 µg/mL); that for `CCc1ccc(CNCC2CCCC(CNCc3ccc(CC)cc3)C2)cc1` (centres undefined) was 15.7 µM (≈ 5.94 µg/mL); that for `c1cc(N2CCCC2)ccc1CNCC1CCCC(CNCc2ccc(N3CCCC3)cc2)C1` (centres undefined) was 9.5 µM (≈ 4.38 µg/mL). On the same count and under the same terms, the value for `c1cc(N2CCCCC2)ccc1CNCC1CCCC(CNCc2ccc(N3CCCCC3)cc2)C1` (centres undefined) was 13.8 µM (≈ 6.74 µg/mL); that for `CC[C@@H](CO)NCCN[C@@H](CC)CO` [ETHAMBUTOL] was 2 µM (≈ 0.409 µg/mL); that for `CCCCCCCCc1ccc(CNCC2CCCC(CNCc3ccc(CCCCCCCC)cc3)C2)cc1` (centres undefined) was 3.2 µM (≈ 1.75 µg/mL).

In turn, `Cc1cc(C)cc(CNCC2CCCC(CNCc3cc(C)cc(C)c3)C2)c1` (centres undefined) returned an MIC of 17.5 µM (≈ 6.63 µg/mL). The compound `c1ccc(N2CCN(c3ccc(CNCC4CCCC(CNCc5ccc(N6CCN(c7ccccc7)CC6)cc5)C4)cc3)CC2)cc1` (centres undefined) displayed an MIC of 4.4 µM (≈ 2.83 µg/mL).

`Brc1ccc(CNCC2CCCC(CNCc3ccc(Br)cc3)C2)cc1` (centres undefined): the MIC stood at 12.2 µM (≈ 5.86 µg/mL). As for `Cc1ccc(CNCC2CCCC(CNCc3ccc(C)c(C)c3)C2)cc1C` (centres undefined), the MIC is over 20 µM. The same measure, in the same setting: the value for `Clc1cccc(CNCC2CCCC(CNCc3cccc(Cl)c3)C2)c1` (centres undefined) was over 20 µM; that for `CCCCCCCc1ccccc1CNCC1CCCC(CNCc2ccccc2CCCCCCC)C1` (centres undefined) was 20 µM (≈ 10.4 µg/mL).

As to `CC(C)c1ccc(CNCC2CCCC(CNCc3ccc(C(C)C)cc3)C2)cc1` (centres undefined), inhibition of growth (MIC) required 4.4 µM (≈ 1.79 µg/mL). `Clc1ccc(CNCC2CCCC(CNCc3ccc(Cl)cc3)C2)cc1` (centres undefined) returned an MIC of 17.5 µM (≈ 6.85 µg/mL).

The compound `FC(F)(F)c1ccc(CNCC2CCCC(CNCc3ccc(C(F)(F)F)cc3)C2)cc1` (centres undefined) yielded an MIC of 12.5 µM (≈ 5.73 µg/mL). Same read-out and setting: the value for `CCCCCc1ccc(CNCC2CCCC(CNCc3ccc(CCCCC)cc3)C2)cc1` (centres undefined) was 6.7 µM (≈ 3.1 µg/mL); that for `CCCCCCCCc1ccccc1CNCC1CCCC(CNCc2ccccc2CCCCCCCC)C1` (centres undefined) was 16.1 µM (≈ 8.81 µg/mL); that for `CCCCc1ccc(CNCC2CCCC(CNCc3ccc(CCCC)cc3)C2)cc1.Cl.Cl` (centres undefined) was 2.4 µM. For `CC(C)(C)c1ccc(CNCC2CCCC(CNCc3ccc(C(C)(C)C)cc3)C2)cc1.Cl.Cl` (centres undefined), 1.1 µM was the least that counted as inhibitory (MIC).

With `Cc1cccc(CNCC2CCCC(CNCc3cccc(C)c3)C2)c1` (centres undefined), the MIC is over 20 µM. The same measure, in the same setting: the value for `Cc1ccc(CNCC2CCCC(CNCc3ccc(C)cc3)C2)cc1` (centres undefined) was over 20 µM; that for `Cc1ccc(CNCC2CCCC(CNCc3ccc(C)cc3C)C2)c(C)c1` (centres undefined) was over 20 µM. Turning to `Clc1ccc(CNCC2CCCC(CNCc3ccc(Cl)cc3Cl)C2)c(Cl)c1` (centres undefined), 20 µM (≈ 9.21 µg/mL) was the least that counted as inhibitory (MIC). The same measure, in the same setting: the value for `CCCCCCc1ccccc1CNCC1CCCC(CNCc2ccccc2CCCCCC)C1` (centres undefined) was 8.8 µM (≈ 4.32 µg/mL).

A further series relates to Mycobacterium tuberculosis. The series is described as follows: Bactericidal activity against Mycobacterium tuberculosis H37Rv assessed as reduction in CFU over 4 days by serial dilution-based time kill assay relative to control. Type of series: functional.
Details: not given
As for `CC(C)(C)c1ccc(CNCC2CCCC(CNCc3ccc(C(C)(C)C)cc3)C2)cc1.Cl.Cl` (centres undefined), the Activity result was “Dose-dependent effect”.

Still in this series, the particulars now being: 96 h.
Usually MBC stands for the smallest concentration meeting the test's criterion for killing. Regarding `CC(C)(C)c1ccc(CNCC2CCCC(CNCc3ccc(C(C)(C)C)cc3)C2)cc1.Cl.Cl` (centres undefined), the MBC was determined as 4.5 µM.

In the next series the test system is Mycobacterium tuberculosis. In words: Bactericidal activity against Mycobacterium tuberculosis H37Rv assessed as reduction in CFU at 10 times MIC after 4 days by serial dilution-based time kill assay relative to control. In kind it is functional, organism-based.
Details: not given
As for `CCCCc1ccc(CNCC2CCCC(CNCc3ccc(CCCC)cc3)C2)cc1.Cl.Cl` (centres undefined), the outcome was Active.

As for `CC(C)(C)c1ccc(CNCC2CCCC(CNCc3ccc(C(C)(C)C)cc3)C2)cc1.Cl.Cl` (centres undefined), the outcome was Active.

The subject of the next series is Mycobacterium tuberculosis. In words: Bactericidal activity against Mycobacterium tuberculosis H37Rv assessed as reduction in CFU at 10 times MIC by serial dilution-based time kill assay relative to control. Type of series: functional, organism-based. The settings on record: TDE = time-dependent effect.
As for `CC(C)(C)c1ccc(CNCC2CCCC(CNCc3ccc(C(C)(C)C)cc3)C2)cc1.Cl.Cl` (centres undefined), the Activity result was “tde”.

The next series concerns Mycobacterium tuberculosis. In words: Antitubercular activity against Mycobacterium tuberculosis H37Rv at 20 uM after 5 days by fluorescence assay. Type of series: functional, organism-based.
Details: not given
In the case of `FC(F)(F)c1ccccc1CNCC1CCCC(CNCc2ccccc2C(F)(F)F)C1` (centres undefined), the inhibition result is “inactive”. On to `Fc1ccc(CNCC2CCCC(CNCc3ccc(F)cc3)C2)cc1` (centres undefined), for which the inhibition result is “inactive”. As to `CN1CCN(c2ccc(CNCC3CCCC(CNCc4ccc(N5CCN(C)CC5)cc4)C3)cc2)CC1` (centres undefined), the inhibition result is “inactive”. In the case of `Clc1cccc(Cl)c1CNCC1CCCC(CNCc2c(Cl)cccc2Cl)C1` (centres undefined), the inhibition result was “inactive”. For the compound `O=[N+]([O-])c1ccc(CNCC2CCCC(CNCc3ccc([N+](=O)[O-])cc3)C2)cc1` (centres undefined), the inhibition entry is “inactive”.

For `O=[N+]([O-])c1cccc(CNCC2CCCC(CNCc3cccc([N+](=O)[O-])c3)C2)c1` (centres undefined), the inhibition entry is “inactive”.

As to `Fc1cccc(CNCC2CCCC(CNCc3cccc(F)c3)C2)c1` (centres undefined), the inhibition result is “inactive”. The same measure, in the same setting: the value for `COc1ccc(CNCC2CCCC(CNCc3ccc(OC)cc3)C2)cc1` (centres undefined) was “inactive”; that for `O=[N+]([O-])c1ccccc1CNCC1CCCC(CNCc2ccccc2[N+](=O)[O-])C1` (centres undefined) was “inactive”. `Clc1ccccc1CNCC1CCCC(CNCc2ccccc2Cl)C1` (centres undefined): the inhibition result was “inactive”. The same measure, in the same setting: the value for `c1ccc(CNCC2CCCC(CNCc3ccccc3)C2)cc1` (centres undefined) was “inactive”; that for `Cc1ccccc1CNCC1CCCC(CNCc2ccccc2C)C1` (centres undefined) was “inactive”; that for `Fc1ccccc1CNCC1CCCC(CNCc2ccccc2F)C1` (centres undefined) was “inactive”. The same measure, in the same setting: the value for `Fc1cc(F)cc(CNCC2CCCC(CNCc3cc(F)cc(F)c3)C2)c1` (centres undefined) was “inactive”; that for `Fc1cccc(F)c1CNCC1CCCC(CNCc2c(F)cccc2F)C1` (centres undefined) was “inactive”.

The subject of another series is Mycobacterium tuberculosis. The series is described as follows: Bactericidal activity against Mycobacterium tuberculosis H37Rv assessed as log reduction in CFU at 10 times MIC over 2 days by serial dilution-based time kill assay relative to control. In kind it is functional.
Details: not given
`CCCCc1ccc(CNCC2CCCC(CNCc3ccc(CCCC)cc3)C2)cc1.Cl.Cl` (centres undefined): the FC turned out to be 5.

On to `CC(C)(C)c1ccc(CNCC2CCCC(CNCc3ccc(C(C)(C)C)cc3)C2)cc1.Cl.Cl` (centres undefined), for which the FC was determined as 5.

These data come from ChEMBL document CHEMBL2331510, “Antimycobacterial activity evaluation, time-kill kinetic and 3D-QSAR study of C-(3-aminomethyl-cyclohexyl)-methylamine derivatives” (Bioorg Med Chem Lett, 2013).
